{"source": "PubChem BioAssay AID272", "about": "(DTP/NCI, 2004)", "tested_on": "Lewis lung carcinoma i.m., BDF1 mice, T/C %", "test": "NCI In Vivo Anticancer Drug Screen. Data for tumor model Lewis Lung Carcinoma (intramuscular) in B6D2F1 (BDF1) mice", "details": "endpoint: mean tumor weight, higher = larger tumour", "how_it_was_run": "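Mice carrying transplantable tumours received test compound. Survival or tumour size was recorded and expressed as the treated-group value (T) divided by the vehicle-treated control-group value (C).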", "note": "Values joined by “and” are separate entries in the source; they are usually repeats but may differ in a detail not shown here. Identical values can stand only once. Records with an inconclusive call do not appear.", "data": [{"smiles": "CCc1nc(N)nc(N)c1-c1ccc(Cl)cc1", "values": [{"measurement": "T/C", "setting": "dose: 2.0 mg/kg/injection, schedule: Q06HX008 (ip), vehicle: Klucel (hydroxypropylcellulose) (HPC)", "value": "104 % of control"}, {"measurement": "T/C", "setting": "dose: 4.0 mg/kg/injection, schedule: Q01DX009 (ip), vehicle: Klucel (hydroxypropylcellulose) (HPC)", "value": "87 % of control"}, {"measurement": "T/C", "setting": "dose: 4.0 mg/kg/injection, schedule: Q01DX009 (oral), vehicle: Klucel (hydroxypropylcellulose) (HPC)", "value": "37 % of control"}, {"measurement": "T/C", "setting": "dose: 4.0 mg/kg/injection, schedule: Q01DX009 (sc), vehicle: Klucel (hydroxypropylcellulose) (HPC)", "value": "95 % of control"}, {"measurement": "T/C", "setting": "dose: 4.0 mg/kg/injection, schedule: Q06HX004 (ip), vehicle: Klucel (hydroxypropylcellulose) (HPC)", "value": "82 % of control"}, {"measurement": "T/C", "setting": "dose: 4.0 mg/kg/injection, schedule: Q06HX012 (ip), vehicle: Klucel (hydroxypropylcellulose) (HPC)", "value": "71 % of control"}, {"measurement": "T/C", "setting": "dose: 8.0 mg/kg/injection, schedule: Q01DX001 (sc), vehicle: Klucel (hydroxypropylcellulose) (HPC)", "value": "66 % of control"}, {"measurement": "T/C", "setting": "dose: 8.0 mg/kg/injection, schedule: Q01DX009 (ip), vehicle: Klucel (hydroxypropylcellulose) (HPC)", "value": "67 % of control"}, {"measurement": "T/C", "setting": "dose: 8.0 mg/kg/injection, schedule: Q01DX009 (oral), vehicle: Klucel (hydroxypropylcellulose) (HPC)", "value": "31 % of control"}, {"measurement": "T/C", "setting": "dose: 8.0 mg/kg/injection, schedule: Q01DX009 (sc), vehicle: Klucel (hydroxypropylcellulose) (HPC)", "value": "76 % of control"}, {"measurement": "T/C", "setting": "dose: 8.0 mg/kg/injection, schedule: Q04DX003 (ip), vehicle: Klucel (hydroxypropylcellulose) (HPC)", "value": "92 % of control"}, {"measurement": "T/C", "setting": "dose: 8.0 mg/kg/injection, schedule: Q06HX004 (ip), vehicle: Klucel (hydroxypropylcellulose) (HPC)", "value": "75 % of control"}, {"measurement": "T/C", "setting": "dose: 8.0 mg/kg/injection, schedule: Q06HX008 (ip), vehicle: Klucel (hydroxypropylcellulose) (HPC)", "value": "65 % of control and 68 % of control"}, {"measurement": "T/C", "setting": "dose: 8.0 mg/kg/injection, schedule: Q06HX012 (ip), vehicle: Klucel (hydroxypropylcellulose) (HPC)", "value": "57 % of control"}, {"measurement": "T/C", "setting": "dose: 8.0 mg/kg/injection, schedule: Q08DX002 (ip), vehicle: Klucel (hydroxypropylcellulose) (HPC)", "value": "85 % of control"}, {"measurement": "T/C", "setting": "dose: 12.5 mg/kg/injection, schedule: Q01DX011 (ip), vehicle: steriod suspending solution", "value": "65 % of control"}, {"measurement": "T/C", "setting": "dose: 16.0 mg/kg/injection, schedule: Q01DX001 (ip), vehicle: Klucel (hydroxypropylcellulose) (HPC)", "value": "71 % of control"}, {"measurement": "T/C", "setting": "dose: 16.0 mg/kg/injection, schedule: Q01DX001 (oral), vehicle: Klucel (hydroxypropylcellulose) (HPC)", "value": "84 % of control"}, {"measurement": "T/C", "setting": "dose: 16.0 mg/kg/injection, schedule: Q01DX001 (sc), vehicle: Klucel (hydroxypropylcellulose) (HPC)", "value": "75 % of control and 80 % of control"}, {"measurement": "T/C", "setting": "dose: 16.0 mg/kg/injection, schedule: Q01DX009 (ip), vehicle: Klucel (hydroxypropylcellulose) (HPC)", "value": "83 % of control and 98 % of control"}, {"measurement": "T/C", "setting": "dose: 16.0 mg/kg/injection, schedule: Q01DX009 (oral), vehicle: Klucel (hydroxypropylcellulose) (HPC)", "value": "38 % of control"}, {"measurement": "T/C", "setting": "dose: 16.0 mg/kg/injection, schedule: Q01DX009 (sc), vehicle: Klucel (hydroxypropylcellulose) (HPC)", "value": "80 % of control"}, {"measurement": "T/C", "setting": "dose: 16.0 mg/kg/injection, schedule: Q04DX003 (ip), vehicle: Klucel (hydroxypropylcellulose) (HPC)", "value": "73 % of control and 78 % of control"}, {"measurement": "T/C", "setting": "dose: 16.0 mg/kg/injection, schedule: Q06HX004 (ip), vehicle: Klucel (hydroxypropylcellulose) (HPC)", "value": "84 % of control"}, {"measurement": "T/C", "setting": "dose: 16.0 mg/kg/injection, schedule: Q06HX008 (ip), vehicle: Klucel (hydroxypropylcellulose) (HPC)", "value": "58 % of control and 73 % of control"}, {"measurement": "T/C", "setting": "dose: 16.0 mg/kg/injection, schedule: Q06HX012 (ip), vehicle: Klucel (hydroxypropylcellulose) (HPC)", "value": "56 % of control"}, {"measurement": "T/C", "setting": "dose: 25.0 mg/kg/injection, schedule: Q01DX011 (ip), vehicle: steriod suspending solution", "value": "57 % of control"}, {"measurement": "T/C", "setting": "dose: 32.0 mg/kg/injection, schedule: Q01DX001 (ip), vehicle: Klucel (hydroxypropylcellulose) (HPC)", "value": "75 % of control"}, {"measurement": "T/C", "setting": "dose: 32.0 mg/kg/injection, schedule: Q01DX001 (oral), vehicle: Klucel (hydroxypropylcellulose) (HPC)", "value": "95 % of control"}, {"measurement": "T/C", "setting": "dose: 32.0 mg/kg/injection, schedule: Q01DX001 (sc), vehicle: Klucel (hydroxypropylcellulose) (HPC)", "value": "85 % of control and 94 % of control"}, {"measurement": "T/C", "setting": "dose: 32.0 mg/kg/injection, schedule: Q01DX009 (oral), vehicle: Klucel (hydroxypropylcellulose) (HPC)", "value": "32 % of control"}, {"measurement": "T/C", "setting": "dose: 32.0 mg/kg/injection, schedule: Q01DX009 (sc), vehicle: Klucel (hydroxypropylcellulose) (HPC)", "value": "71 % of control"}, {"measurement": "T/C", "setting": "dose: 32.0 mg/kg/injection, schedule: Q04DX003 (ip), vehicle: Klucel (hydroxypropylcellulose) (HPC)", "value": "76 % of control and 94 % of control"}, {"measurement": "T/C", "setting": "dose: 32.0 mg/kg/injection, schedule: Q06HX008 (ip), vehicle: Klucel (hydroxypropylcellulose) (HPC)", "value": "62 % of control"}, {"measurement": "T/C", "setting": "dose: 32.0 mg/kg/injection, schedule: Q08DX002 (ip), vehicle: Klucel (hydroxypropylcellulose) (HPC)", "value": "74 % of control"}, {"measurement": "T/C", "setting": "dose: 50.0 mg/kg/injection, schedule: Q01DX011 (ip), vehicle: steriod suspending solution", "value": "50 % of control"}, {"measurement": "T/C", "setting": "dose: 64.0 mg/kg/injection, schedule: Q01DX001 (ip), vehicle: Klucel (hydroxypropylcellulose) (HPC)", "value": "78 % of control"}, {"measurement": "T/C", "setting": "dose: 64.0 mg/kg/injection, schedule: Q01DX001 (oral), vehicle: Klucel (hydroxypropylcellulose) (HPC)", "value": "85 % of control"}, {"measurement": "T/C", "setting": "dose: 64.0 mg/kg/injection, schedule: Q01DX001 (sc), vehicle: Klucel (hydroxypropylcellulose) (HPC)", "value": "78 % of control and 81 % of control"}]}]}
